Tests used:
EGFR (L858R/T790M/C797S) = EGFR (L858R/T790M/C797S) (Homo sapiens, UniProt P00533, C797S/L858R/T790M); assay: MSA (Mobility Shift Assay) kinase activity, EGFR-L858R-T790M-C797S; assay type: biochemical
Description: (§1) The MSA (Mobility Shift Assay) method was used to detect the effects of small molecule inhibitors on the kinase activity of EGFR wild type and its mutants (EGFR^wt, EGFR-L858R, EGFR-L858R-T790M-C797S, EGFR-L858R-C797S).
(§2) 10 μL of kinase solution at 2.5 times the final concentration was added to the compound wells and positive control Max wells; 10 μL of 1x kinase buffer was added to the negative control Min wells. The mixture was centrifuged at 1000 rpm for 30 seconds, and the reaction plate was shaken to mix the solution well and then incubated at room temperature for 10 minutes. A mixed solution of ATP and kinase substrate at 5/3 times the final concentration was prepared in 1x kinase buffer. 15 μL of a mixed solution of ATP and substrate at 5/3 times the final concentration was added to initiate the reaction. The 384-well plate was centrifuged at 1000 rpm for 30 seconds, and shaken to mix the solution well and then incubated at room temperature for the corresponding time. 30 μL of stop detection solution was added to stop the kinase reaction, and the mixture was centrifuged at 1000 rpm for 30 seconds, and then to mixed well by shaking. The conversion rate was read using Caliper EZ Reader.
(§3) wherein: Conversion %_sample is the conversion rate reading of the sample; Conversion %_min is the mean of the negative control wells, representing the conversion rate reading of the wells without enzyme activity; Conversion %_max is the mean of the positive control wells, representing the conversion rate reading of the wells without compound inhibition.
(§4) The log (inhibitor) vs. response —Variable slope of the analysis software GraphPad Prism 5 was used to fit the dose-effect curve, where the log value of the concentration was used as the X-axis and the percentage inhibition rate was used as the Y-axis, to obtain the IC50 value of each compound on the enzyme activity.
(§5) The calculation formula is Y=Bottom+(Top-Bottom)/(1+10^((Log IC50−X)*Hill Slope))

EGFR (wild-type) = EGFR (wild-type) (Homo sapiens, UniProt P00533); assay: MSA (Mobility Shift Assay) kinase activity, EGFR wild type; assay type: biochemical; conditions: read-out: EGFR wt/ IC50/nM
Description: as §1, §2, §3, §4, §5

EGFR (L858R/C797S) = EGFR (L858R/C797S) (Homo sapiens, UniProt P00533, C797S/L858R); assay: MSA (Mobility Shift Assay) kinase activity, EGFR-L858R-C797S; assay type: biochemical
Description: as §1, §2, §3, §4, §5

EGFR (L858R) = EGFR (L858R) (Homo sapiens, UniProt P00533, L858R); assay: MSA (Mobility Shift Assay) kinase activity, EGFR-L858R; assay type: biochemical
Description: as §1, §2, §3, §4, §5

[1] = biological target: T1, Ba/F3-TEL-EGFR-L858R-C797S (Homo sapiens, UniProt P00533, C797S/L858R, cells depend on it); assay: CellTiter-Glo proliferation, Ba/F3-TEL-EGFR-L858R-C797S; assay type: cell-based; conditions: 72 hours, read-out: Ba/F3-TEL-EGFR-L858R-C797S IC50/nM
T1 construct: fused on or other part: N-terminal TEL (ETV6) oligomerising part fused to the EGFR intracellular/kinase part; P41212 (Transcription factor ETV6)
Description: (§6) Promega CellTiter-Glo reagent was used to detect the effects of small molecule inhibitors on the proliferation of five Ba/F3 cell lines (Ba/F3-FL-EGFR, Ba/F3-FL-EGFR-L858R, Ba/F3-FL-EGFR-L858R-T790M-C797S, Ba/F3-TEL-EGFR-L858R-C797S and Ba/F3-FL-EGFR-del19-C797S).
(§7) The cell lines were cultured in an incubator at 37° C. and 5% CO2. Cells were passaged regularly and cells in the logarithmic phase were used for plating. 95 μL of cell suspension was added to each well of the cell plate, and culture medium without cells (containing 0.1% DMSO) was added to the Min control wells. Substance addition for compound detection cell plate: 5 μL of 20× compound working solution was added to the cell culture plate as shown in the table below. 50 μL of DMSO-cell culture medium mixture was added to the Max control, with the final DMSO concentration of 0.1%. 5 μL of DMSO-cell culture medium mixture was added to the Max control. The final DMSO concentration was 0.1%.
(§8) The compounds to be tested were added as per the table below
(§9) Cell viability was detected by CellTiter-Glo luminescence assay. Data analysis:
(§10) The cell proliferation inhibition rate (Inhibition Rate) data was processed using the following formula: […]
(§11) wherein: RLUDrug represents the relative luminescence unit of the cells with the addition of drug, RLUMin represents the luminescence unit of the culture medium, and RLUMax represents the relative luminescence unit of the cells with the addition of DMSO.
(§12) The inhibition rates corresponding to different concentrations of compounds were calculated in EXCEL, and then the inhibition rate curve was plotted using GraphPad Prism software and related parameters including the maximum and minimum inhibition rates of cells and IC50 values were calculated.

Ba/F3-FL-EGFR = biological target: T2, Ba/F3-FL-EGFR (Homo sapiens, UniProt P00533); assay: CellTiter-Glo proliferation, Ba/F3-FL-EGFR; assay type: cell-based; conditions: 72 hours, read-out: Ba/F3-FL-EGFR IC50/nM
T2 construct: FL read as full length
Description: as §6, §7, §8, §9, §10, §11, §12

Ba/F3-FL-EGFR-L858R = Ba/F3-FL-EGFR-L858R (Homo sapiens, UniProt P00533, L858R, cells depend on it); assay: CellTiter-Glo proliferation, Ba/F3-FL-EGFR-L858R; assay type: cell-based; conditions: 72 hours, read-out: Ba/F3-FL-EGFR-L858R IC50/nM
Description: as §6, §7, §8, §9, §10, §11, §12

[2] = biological target: Ba/F3-FL-EGFR-L858R-T790M-C797S (Homo sapiens, UniProt P00533, T790M/C797S/L858R, cells depend on it); assay: CellTiter-Glo proliferation, Ba/F3-FL-EGFR-L858R-T790M-C797S; assay type: cell-based; conditions: 72 hours, read-out: Ba/F3-FL-EGFR-L858R-T790M-C797S IC50/nM
Description: as §6, §7, §8, §9, §10, §11, §12

[3] = tested on: Ba/F3-FL-EGFR-del19-C797S; assay: CellTiter-Glo proliferation, Ba/F3-FL-EGFR-del19-C797S; assay type: cell-based; conditions: 72 h, proliferation, 72 hours, CellTiter-Glo; read-out: Ba/F3-FL-EGFR-del19-C797S IC50/nM
Description: as §6, §7, §8, §9, §10, §11, §12

T2 sequence (P00533 whole entry, change not shown): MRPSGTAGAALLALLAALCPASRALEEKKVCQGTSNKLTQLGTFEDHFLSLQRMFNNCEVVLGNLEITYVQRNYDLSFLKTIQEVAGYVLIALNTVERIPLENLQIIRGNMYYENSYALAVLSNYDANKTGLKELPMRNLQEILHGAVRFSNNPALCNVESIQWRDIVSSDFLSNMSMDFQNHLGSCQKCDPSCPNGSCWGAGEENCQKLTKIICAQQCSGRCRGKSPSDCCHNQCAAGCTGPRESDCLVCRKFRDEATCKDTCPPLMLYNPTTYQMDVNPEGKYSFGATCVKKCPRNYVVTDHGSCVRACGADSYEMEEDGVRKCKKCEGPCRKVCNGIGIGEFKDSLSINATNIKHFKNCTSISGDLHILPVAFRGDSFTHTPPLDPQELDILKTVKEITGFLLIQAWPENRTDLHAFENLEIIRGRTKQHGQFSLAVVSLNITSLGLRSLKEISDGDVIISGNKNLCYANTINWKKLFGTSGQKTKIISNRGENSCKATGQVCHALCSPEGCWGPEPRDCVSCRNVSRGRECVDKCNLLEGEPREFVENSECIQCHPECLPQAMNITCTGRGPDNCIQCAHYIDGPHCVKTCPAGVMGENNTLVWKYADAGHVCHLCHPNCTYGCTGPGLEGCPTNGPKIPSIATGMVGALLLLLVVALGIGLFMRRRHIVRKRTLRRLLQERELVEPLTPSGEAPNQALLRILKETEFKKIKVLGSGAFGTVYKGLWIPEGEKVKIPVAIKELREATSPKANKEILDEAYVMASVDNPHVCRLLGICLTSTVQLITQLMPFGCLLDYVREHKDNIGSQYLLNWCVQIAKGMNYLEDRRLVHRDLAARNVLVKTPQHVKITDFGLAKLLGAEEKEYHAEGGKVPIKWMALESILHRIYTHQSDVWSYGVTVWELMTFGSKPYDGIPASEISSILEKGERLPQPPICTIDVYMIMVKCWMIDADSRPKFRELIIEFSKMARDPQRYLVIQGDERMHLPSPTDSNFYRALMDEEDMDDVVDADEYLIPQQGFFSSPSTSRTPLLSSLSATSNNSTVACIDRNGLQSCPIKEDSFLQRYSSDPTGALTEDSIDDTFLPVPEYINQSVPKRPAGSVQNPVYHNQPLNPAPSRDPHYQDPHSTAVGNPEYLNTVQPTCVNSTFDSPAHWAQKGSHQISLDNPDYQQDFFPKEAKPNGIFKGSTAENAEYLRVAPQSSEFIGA
T1 sequence (P00533 whole entry C797S/L858R, the tested form may be a part): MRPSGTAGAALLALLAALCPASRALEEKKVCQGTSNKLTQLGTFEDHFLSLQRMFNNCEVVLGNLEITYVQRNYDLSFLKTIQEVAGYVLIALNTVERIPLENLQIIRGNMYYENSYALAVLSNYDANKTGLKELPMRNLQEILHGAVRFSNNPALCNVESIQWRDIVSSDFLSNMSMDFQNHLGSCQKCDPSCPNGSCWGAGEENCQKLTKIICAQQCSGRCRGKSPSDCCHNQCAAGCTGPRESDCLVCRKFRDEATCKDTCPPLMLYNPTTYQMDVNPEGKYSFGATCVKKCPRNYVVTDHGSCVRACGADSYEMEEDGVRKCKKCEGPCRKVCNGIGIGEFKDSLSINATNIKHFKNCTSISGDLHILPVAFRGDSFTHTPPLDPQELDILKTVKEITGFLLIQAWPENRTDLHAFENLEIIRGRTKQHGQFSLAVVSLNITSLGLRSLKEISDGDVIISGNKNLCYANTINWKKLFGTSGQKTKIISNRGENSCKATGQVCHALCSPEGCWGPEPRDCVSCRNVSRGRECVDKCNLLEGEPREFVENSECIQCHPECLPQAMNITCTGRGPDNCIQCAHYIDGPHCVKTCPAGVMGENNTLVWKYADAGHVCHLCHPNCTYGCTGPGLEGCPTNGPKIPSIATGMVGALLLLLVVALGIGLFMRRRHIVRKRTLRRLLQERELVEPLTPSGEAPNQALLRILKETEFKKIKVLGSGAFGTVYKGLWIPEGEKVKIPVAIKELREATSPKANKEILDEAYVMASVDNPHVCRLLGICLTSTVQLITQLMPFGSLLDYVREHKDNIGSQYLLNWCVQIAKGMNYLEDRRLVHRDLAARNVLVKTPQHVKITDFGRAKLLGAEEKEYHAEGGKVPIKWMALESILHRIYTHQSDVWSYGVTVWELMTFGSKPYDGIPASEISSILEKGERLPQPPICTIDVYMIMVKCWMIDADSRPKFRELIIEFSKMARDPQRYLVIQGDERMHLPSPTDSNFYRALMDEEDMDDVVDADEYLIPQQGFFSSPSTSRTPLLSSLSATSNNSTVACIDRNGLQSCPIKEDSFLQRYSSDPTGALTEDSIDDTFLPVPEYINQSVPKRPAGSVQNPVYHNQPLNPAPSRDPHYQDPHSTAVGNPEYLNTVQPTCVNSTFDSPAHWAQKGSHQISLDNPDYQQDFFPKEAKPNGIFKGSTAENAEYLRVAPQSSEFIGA
Sequence of EGFR (L858R/T790M/C797S) (P00533 25-1210 T790M/C797S/L858R): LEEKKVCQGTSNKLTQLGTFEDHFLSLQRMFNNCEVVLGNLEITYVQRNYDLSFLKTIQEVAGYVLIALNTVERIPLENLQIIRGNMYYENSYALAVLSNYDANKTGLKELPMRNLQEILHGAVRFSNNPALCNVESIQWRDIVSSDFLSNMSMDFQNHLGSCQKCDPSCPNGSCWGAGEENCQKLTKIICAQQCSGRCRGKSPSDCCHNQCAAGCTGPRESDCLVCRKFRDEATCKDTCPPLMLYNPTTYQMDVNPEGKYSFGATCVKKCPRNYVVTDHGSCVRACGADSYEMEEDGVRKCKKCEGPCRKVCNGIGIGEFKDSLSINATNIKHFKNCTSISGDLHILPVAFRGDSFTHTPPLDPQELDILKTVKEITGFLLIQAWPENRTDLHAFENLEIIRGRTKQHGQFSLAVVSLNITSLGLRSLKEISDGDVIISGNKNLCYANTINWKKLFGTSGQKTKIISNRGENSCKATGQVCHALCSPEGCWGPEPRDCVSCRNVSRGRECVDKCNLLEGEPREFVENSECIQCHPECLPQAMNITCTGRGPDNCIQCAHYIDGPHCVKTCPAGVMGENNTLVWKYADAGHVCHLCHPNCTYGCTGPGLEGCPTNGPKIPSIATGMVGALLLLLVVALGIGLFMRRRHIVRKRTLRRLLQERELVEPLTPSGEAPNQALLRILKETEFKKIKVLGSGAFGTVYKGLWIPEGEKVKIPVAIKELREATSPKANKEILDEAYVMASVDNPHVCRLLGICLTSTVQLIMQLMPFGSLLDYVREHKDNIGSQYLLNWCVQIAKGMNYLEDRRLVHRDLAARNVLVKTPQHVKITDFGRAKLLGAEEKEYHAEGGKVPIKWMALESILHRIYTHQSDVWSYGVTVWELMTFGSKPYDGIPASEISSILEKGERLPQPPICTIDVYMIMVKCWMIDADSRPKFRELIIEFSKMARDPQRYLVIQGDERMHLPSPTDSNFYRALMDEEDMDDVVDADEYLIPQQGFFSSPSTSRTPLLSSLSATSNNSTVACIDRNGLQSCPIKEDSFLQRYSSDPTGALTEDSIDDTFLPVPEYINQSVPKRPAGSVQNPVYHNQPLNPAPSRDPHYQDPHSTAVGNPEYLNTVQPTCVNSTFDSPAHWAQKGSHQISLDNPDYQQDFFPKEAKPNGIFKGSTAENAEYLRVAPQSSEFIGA
Sequence of Ba/F3-FL-EGFR-L858R-T790M-C797S (P00533 whole entry T790M/C797S/L858R): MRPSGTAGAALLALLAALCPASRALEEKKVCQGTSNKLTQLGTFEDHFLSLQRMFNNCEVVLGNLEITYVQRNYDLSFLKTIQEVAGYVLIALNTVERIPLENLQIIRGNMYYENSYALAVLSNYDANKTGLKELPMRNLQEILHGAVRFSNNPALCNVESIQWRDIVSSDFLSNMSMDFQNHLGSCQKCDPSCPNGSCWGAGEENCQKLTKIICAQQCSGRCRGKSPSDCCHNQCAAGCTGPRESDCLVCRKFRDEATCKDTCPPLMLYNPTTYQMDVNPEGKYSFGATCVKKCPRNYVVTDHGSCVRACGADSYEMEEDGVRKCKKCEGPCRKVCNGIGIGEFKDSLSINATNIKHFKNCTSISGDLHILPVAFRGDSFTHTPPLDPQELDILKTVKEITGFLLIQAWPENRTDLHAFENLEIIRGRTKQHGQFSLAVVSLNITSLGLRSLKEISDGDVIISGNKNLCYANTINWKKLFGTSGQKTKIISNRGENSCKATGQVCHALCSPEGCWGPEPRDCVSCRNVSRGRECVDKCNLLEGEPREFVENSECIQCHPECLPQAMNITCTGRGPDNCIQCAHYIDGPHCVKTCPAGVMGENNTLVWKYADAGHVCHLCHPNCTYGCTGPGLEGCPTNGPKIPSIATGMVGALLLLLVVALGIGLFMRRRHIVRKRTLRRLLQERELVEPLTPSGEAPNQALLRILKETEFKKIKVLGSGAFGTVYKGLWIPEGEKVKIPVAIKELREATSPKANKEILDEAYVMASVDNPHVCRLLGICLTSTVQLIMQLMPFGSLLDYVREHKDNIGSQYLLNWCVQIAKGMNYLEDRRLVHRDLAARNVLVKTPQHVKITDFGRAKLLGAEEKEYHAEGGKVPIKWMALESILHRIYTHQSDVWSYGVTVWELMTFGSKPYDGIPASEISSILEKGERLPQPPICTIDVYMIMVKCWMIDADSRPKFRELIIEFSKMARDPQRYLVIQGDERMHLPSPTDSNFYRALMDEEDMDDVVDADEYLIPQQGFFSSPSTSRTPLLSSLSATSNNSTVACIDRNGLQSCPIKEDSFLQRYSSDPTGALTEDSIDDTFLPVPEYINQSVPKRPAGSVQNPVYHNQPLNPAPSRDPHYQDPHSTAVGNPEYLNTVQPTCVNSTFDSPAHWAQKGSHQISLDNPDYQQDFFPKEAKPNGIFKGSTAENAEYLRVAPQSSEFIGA

| Structure (SMILES) | IC50 (EGFR (L858R/T790M/C797S)) | IC50 (EGFR (wild-type)) | IC50 (EGFR (L858R/C797S)) | IC50 (EGFR (L858R)) | GI50 [1] | GI50 (Ba/F3-FL-EGFR) | GI50 (Ba/F3-FL-EGFR-L858R) | GI50 [2] | IC50 [3] |
| --- | --- | --- | --- | --- | --- | --- | --- | --- | --- |
| COc1cccc(-c2nccc(Nc3cc4c(C(C)C)ccc(N5CC(CS(C)(=O)=O)C5)c4cn3)n2)n1 [Compound H2] | 71.6 nM | > 100 nM | > 100 nM | > 100 nM |  |  |  |  |  |
| CC(C)c1ccc(N2CC(CS(C)(=O)=O)C2)c2cnc(Nc3ccnc(-c4cnn(S(=O)(=O)C(F)(F)F)c4)n3)cc12 [Compound H8] | 3.5 nM | > 100 nM | 6.4 nM |  |  |  |  |  |  |
| CC(C)c1ccc(N2CC(CS(C)(=O)=O)C2)c2cnc(Nc3ccnc(-c4cnn(S(=O)(=O)C5CCCCC5)c4)n3)cc12 [Compound H9] | 6.3 nM | > 100 nM | 12 nM |  |  |  |  |  |  |
| CC(C)c1cc(C#N)c(N2CC(CS(C)(=O)=O)C2)c2cnc(Nc3ccnc(N4CCC(O)C(F)C4)n3)cc12 (stereo not shown) [Compound P16] | 0.28 nM | > 100 nM | 24.1 nM |  |  |  |  |  |  |
| CC(C)c1ccc(N2CC(c3cscn3)C2)c2cnc(Nc3ccnc(N4CCC(O)C(F)C4)n3)cc12 (stereo not shown) [Compound P18] | 9.9 nM | > 100 nM | > 100 nM |  |  |  |  |  |  |
| COC1CCN(c2nccc(Nc3cc4c(cn3)c(N3CC(CS(C)(=O)=O)C3)cc(=O)n4C(C)C)n2)CC1F (stereo not shown) [Compound P24] | 0.13 nM | 41.2 nM | 10.4 nM |  | 63 nM | 3440 nM | 128 nM | 57 nM | 283 nM |
| CC(=O)NC1CN(c2ccc(C(C)C)c3cc(Nc4ccnc(N5CCC(O)C(F)C5)n4)ncc23)C1 (stereo not shown) [Compound P35] |  |  |  |  | 1690 nM | 8760 nM | 2520 nM | 1660 nM | 3120 nM |
| COC1CCN(c2nccc(Nc3cc4c(C(C)C)ccc(N5CC(N(C)S(C)(=O)=O)C5)c4cn3)n2)CC1F (stereo not shown) [Compound P36] |  |  |  |  | 8.3 nM | 1090 nM | 33 nM | 14 nM | 159 nM |
| COC1CCN(c2nccc(Nc3cc4c(C(C)C)ccc(N5CC(NS(=O)(=O)C6COC6)C5)c4cn3)n2)CC1F (stereo not shown) [Compound P37] |  |  |  |  | 33 nM | 1140 nM | 83 nM | 34 nM | 339 nM |
| COC1CCN(c2nccc(Nc3cc4c(C(C)C)ccc(N5C[C@H](NS(C)(=O)=O)[C@H]5C)c4cn3)n2)CC1F (stereo partly shown) [Compound P38] |  |  |  |  | 7 nM | 540 nM | 15 nM | 5.4 nM | 76 nM |
| CC(C)c1ccc(N2CC(N(C)S(C)(=O)=O)C2)c2cnc(Nc3ccnc(N4CC[C@H](O)[C@H](F)C4)n3)cc12 [Compound P39b] |  |  |  |  | 16 nM | 760 nM | 24 nM | 14 nM | 60 nM |
| CO[C@@H]1CCN(c2nccc(Nc3cc4c(C(C)C)ccc(N5C[C@H](N(C)S(C)(=O)=O)[C@H]5C)c4cn3)n2)C[C@@H]1F [Compound P40a] |  |  |  |  | 5.8 nM | 421 nM | 20 nM | 2.5 nM | 53 nM |
| CO[C@H]1CCN(c2nccc(Nc3cc4c(C(C)C)ccc(N5C[C@H](N(C)S(C)(=O)=O)[C@H]5C)c4cn3)n2)C[C@H]1F [Compound P40b] |  |  |  |  | 5.9 nM | 465 nM | 25 nM | 4.8 nM | 81 nM |
| [2H]C([2H])([2H])N([C@H]1CN(c2ccc(C(C)C)c3cc(Nc4ccnc(N5CCC(OC)C(F)C5)n4)ncc23)[C@@H]1C)S(C)(=O)=O (stereo partly shown) [Compound P42] |  |  |  |  | 6.6 nM | 761 nM | 16 nM | 5.8 nM | 90 nM |
| CCS(=O)(=O)N(C)[C@H]1CN(c2ccc(C(C)C)c3cc(Nc4ccnc(N5CCC(OC)C(F)C5)n4)ncc23)[C@@H]1C (stereo partly shown) [Compound P43] |  |  |  |  | 9.8 nM | 593 nM | 36 nM | 5.6 nM | 142 nM |
| CCS(=O)(=O)N[C@H]1CN(c2ccc(C(C)C)c3cc(Nc4ccnc(N5CCC(OC)C(F)C5)n4)ncc23)[C@@H]1C (stereo partly shown) [Compound P44] |  |  |  |  | 10 nM | 775 nM | 21 nM | 6.7 nM | 110 nM |
| CCS(=O)(=O)NC1CN(c2ccc(C(C)C)c3cc(Nc4ccnc(N5CCC(O)C(F)C5)n4)ncc23)C1 (stereo not shown) [Compound P47] |  |  |  |  | 38 nM | 1610 nM | 113 nM | 42 nM | 179 nM |
| CCCS(=O)(=O)NC1CN(c2ccc(C(C)C)c3cc(Nc4ccnc(N5CCC(O)C(F)C5)n4)ncc23)C1 (stereo not shown) [Compound P48] |  |  |  |  | 29 nM | 1170 nM | 76 nM | 31 nM | 144 nM |
| COCCS(=O)(=O)N(C)C1CN(c2ccc(C(C)C)c3cc(Nc4ccnc(N5CCC(OC)C(F)C5)n4)ncc23)C1 (stereo not shown) [Compound P49] |  |  |  |  | 36 nM | 1070 nM | 121 nM | 38 nM | 316 nM |
| COC1CCN(c2nccc(Nc3cc4c(C(C)C)ccc(N5CC(N(C)S(=O)(=O)C(F)(F)F)C5)c4cn3)n2)CC1F (stereo not shown) [Compound P50] |  |  |  |  | 542 nM | 6620 nM | 1890 nM | 720 nM | 3510 nM |
